Assay results reported in patent US20050043239A1, “Methods of inhibiting immune responses stimulated by an endogenous factor” (priority 2003, published 2005).
“Also recorded” adds a separate entry of the source. Each block holds one molecule with its values, some of them ahead of it.

What was measured:
neutrophils [1] = test: Superoxide production by activated neutrophils (WST-1); format: cell-based; settings: no inhibitor; read-out: agonist concentration representing half-maximal production of superoxide anions
neutrophils [2] = test: Neutrophil elastase release (exocytosis) assay; format: cell-based; settings: no inhibitor; read-out: agonist concentration representing half-maximal release of elastase
human neutrophils = test: Neutrophil chemotaxis, Transwell assay; format: cell-based; settings: no inhibitor, read-out: concentration of chemoattractant necessary to support half-maximal migration
Method: It is known that distinct signal transduction pathways are utilized by host-derived versus bacteria-produced chemoattractants [Heit, J. Cell Biol., 159:91-102 (2002)]. To determine whether specific chemotactic agents preferentially rely on PI3Kδ in order to promote directed cell migration, the effect of inhibiting PI3Kδ on the ability of neutrophils to undergo chemotaxis was examined using a Transwell™ assay system.
Neutrophil chemotaxis experiments were conducted as described [Roth et al., J. Immunol. Methods, 188:97-116 (1995)]. Briefly, purified human neutrophils were incubated with DMSO (0.3% v/v) or an inhibitor in accordance with the invention reconstituted in DMSO (0.3%) for 20 minutes at room temperature. Cells were added to bare filter inserts (Transwell™ 5 μm pore size; Corning Costar, Cambridge, Mass.), that were placed into wells containing chemoattractants or control medium of a Ultra low 24-well cluster plate, and incubated for 1 hour at 37° C. in a 5% CO2 humidified environment. The number of neutrophils that migrated into the bottom well was determined by FACScan (Becton Dickinson, San Jose, Calif.). Results were expressed as percent neutrophil migration relative to the control (medium without inhibitor).
Dose response curves were generated to determine the concentrations of each chemoattractant, both host and bacterial-derived, necessary to support half-maximal migration. […] Methods, 137:37-46 (1991)].

Listeria monocytogenes = test: Clearance of systemic Listeria monocytogenes infection; format: in vivo; settings: for Log colony count/gm spleen tissue in dexamethasone group (2 mg/kg): 72 hours post-infection, Lewis rats
Method: Two separate bacterial clearance studies were conducted. […] Colony counts (CFU) per gram of spleen tissues were determined at necropsy, 72 hours post-infection and expressed as the log of the colony count (e.g., 100000 CFU=log 5) per gram of tissue. Colony count measurements provide an indication of the extent of phagocytosis of bacteria by splenic neutrophils and macrophages.

Molecule: C[C@@H]1C[C@H]2[C@@H]3CCC4=CC(=O)C=C[C@]4(C)[C@@]3(F)[C@@H](O)C[C@]2(C)[C@@]1(O)C(=O)CO [dexamethasone]
- Log colony count/gm spleen tissue in dexamethasone group (2 mg/kg) (Listeria monocytogenes; Clearance Experiment 1, 2 mg/kg BID PO): count, >5 log colony count/gm spleen tis
- Log colony count/gm spleen tissue in dexamethasone group (2 mg/kg) (Listeria monocytogenes; Clearance Experiment 2, 2 mg/kg): hours, >10 log colony count/gm spleen tis
- lethality / condition of animals at 72 hours (Listeria monocytogenes; second experiment, dexamethasone 2 mg/kg): lethality was observed; also recorded: Moribund at 72

Molecule: interleukin 8 [IL-8]
- EC50 (human neutrophils): 0.35 nM

The remaining molecules from weak to strong by EC50 (human neutrophils), led by results:

- EC50 (human neutrophils): 0.37 nM
B1: complement factor C5a (protein, UniProt P01031 678-751, looked up)
C5a anaphylatoxin: TLQKKIEEIAAKYKHSVVKKCCYDGACVNNDETCEQRAARISLGPRCIKAFTECCVVASQLRANISHKDMQLGR
modifications: C5a anaphylatoxin
notes: host-derived chemoattractant

- EC50 (neutrophils [2]): 2 nM
- EC50 (human neutrophils): 0.25 nM
Molecule: CCCCC/C=C\C[C@@H](O)/C=C/C=C/C=C\[C@@H](O)CCCC(=O)O [LTB4, leukotriene B4]
- EC50 (neutrophils [1]): 2 nM
